From patent US4317768A, “Dihydropyridine derivatives as stabilizers for vinyl chloride polymers” (priority 1977, dated 1982)

Columns and labels:
[1] = Static thermostability (GARDNER method), rigid PVC sheets, 210° C., 0.3 part stabilizer; conditions: for thermostabilizing power compared to 2-phenyl-indole, in words: 210° C.
Method: (§1) This study was carried out according to the GARDNER method, described in British Pat. No. 1,489,685.
(§2) The reference substance was 2-phenyl-indole, a well-known and widely used stabilizer.
(§3) The stabilizer (dihydropyridine or 2-phenyl-indole) and the other usual ingredients were mixed with powdered vinyl resins and the mixtures were calendered at a temperature of 160° C. to give rigid sheets.
(§4) The sheets were then heated in a thermostated oven (185° C. or 210° C.) for different intervals of time until incipient carbonization.
(§5) The coloration of the samples was compared to a standard scale of coloration, known as the GARDNER scale and was expressed in terms of the reference figures of the GARDNER scale.
(§6) This study was carried out with the following resin:
(§7) Polyvinyl chloride resin
(§8) SL 2016 is a solution of zinc-2-ethyl-hexanoate in a mixture of hydrocarbons boiling between 158° C. and 184° C.
The first trial was carried out at 210° C. with a resin containing 0.3 part by weight of stabilizer, the sheets being removed from the oven every three minutes over a period of 21 minutes.

[2] = Static thermostability (GARDNER method), rigid PVC sheets, 185° C., 0.3 part stabilizer
Method: as §1, §2, §3, §4, §5, §6, §7, §8
A second trial was performed at a temperature of 185° C., with a resin containing 0.3 part of stabilizer, the samples being removed from the oven every 6 minutes over a period of 24 minutes, then every 3 minutes until the 42nd minute (or until carbonization).

[3] = Static thermostability (GARDNER method), rigid PVC sheets, 185° C., equimolecular quantities; conditions: 1.55×10^-3 mol
Method: as §1, §2, §3, §4, §5, §6, §7, §8
Finally, a trail was performed at 185° C., with resins containing equimolecular quantities of the dihydropyridines or of 2-phenyl-indole, namely 1.55×10^-3 mol. In this case too, the samples were removed from the oven every 6 minutes over a period of 24 minutes and then every 3 minutes until the 42nd minute (or until carbonization).

SMILES	coloration, GARDNER scale ([1]; 0 min)	coloration, GARDNER scale ([1]; 3 min)	coloration, GARDNER scale ([1]; 6 min)	coloration, GARDNER scale ([1]; 9 min)	coloration, GARDNER scale ([1]; 12 min)	coloration, GARDNER scale ([1]; 15 min)	coloration, GARDNER scale ([1]; 18 min)	coloration, GARDNER scale ([1]; 21 min)	also measured
CC1=C(C(=O)OCCCl)CC(C(=O)OCCCl)=C(C)N1 [Compound 3, 2,6-Dimethyl-3,5-di-(2'-carbochloro-ethoxy)-1,4-dihydroyridine]	1	1	3	4	5	10.5	Burnt	–	thermostabilizing power compared to 2-phenyl-indole, in words [1]: greatly superior to 2-phenyl-indole; coloration, GARDNER scale ([2]; 0 min): 1; coloration, GARDNER scale ([2]; 6 min): 1; coloration, GARDNER scale ([2]; 12 min): 5; coloration, GARDNER scale ([2]; 18 min): 8; coloration, GARDNER scale ([2]; 24 min): 10; coloration, GARDNER scale ([2]; 27 min): 10.5; coloration, GARDNER scale ([2]; 30 min): 13; coloration, GARDNER scale ([2]; 33 min): 14; coloration, GARDNER scale ([2]; 36 min): 18; coloration, GARDNER scale ([2]; 39 min): 18; coloration, GARDNER scale ([2]; 42 min): Burnt
COc1ccc(COC(=O)C2=C(C)NC(C)=C(C(=O)OCc3ccc(OC)cc3)C2)cc1 [Compound 4]	1	1	2	4	6	11	Burnt	–	coloration of the resins, in words ([1]; 0 to 3 minutes): considerably less; coloration, GARDNER scale ([3]; 0 min): 1; coloration, GARDNER scale ([3]; 6 min): 1; coloration, GARDNER scale ([3]; 12 min): 1; coloration, GARDNER scale ([3]; 18 min): 4; coloration, GARDNER scale ([3]; 24 min): 6; coloration, GARDNER scale ([3]; 27 min): 8; coloration, GARDNER scale ([3]; 30 min): 11; coloration, GARDNER scale ([3]; 33 min): 15; coloration, GARDNER scale ([3]; 36 min): Burnt; coloration, GARDNER scale ([2]; 0 min): 1; coloration, GARDNER scale ([2]; 6 min): 1; coloration, GARDNER scale ([2]; 12 min): 2; coloration, GARDNER scale ([2]; 18 min): 8; coloration, GARDNER scale ([2]; 24 min): 13; coloration, GARDNER scale ([2]; 27 min): 14; coloration, GARDNER scale ([2]; 30 min): 17; coloration, GARDNER scale ([2]; 33 min): 18; coloration, GARDNER scale ([2]; 36 min): Burnt
CC1=C(C(=O)OCc2ccc(Cl)cc2)CC(C(=O)OCc2ccc(Cl)cc2)=C(C)N1 [Compound 7, 2,6-Dimethyl-3,5-di-(4'carbochloro-benzyloxy)-1,4-dihydropyridine]	1	1	2	4	10.5	14	Burnt	–	–
CCCCCCC1C(C(=O)OC)=C(C)NC(C)=C1C(=O)OC [Compound 8, 2,6-Dimethyl-3,5-dicarbomethoxy-4-hexyl-1,4-dihydropyridine]	1	2	3	6	8	10.5	11	Burnt	–
CCOC(=O)C1=C(Cc2ccccc2)NC(Cc2ccccc2)=C(C(=O)OCC)C1 [Compound 16, 2,6-Dibenzyl-3,5-dicarbethoxy-1,4-dihydropyridine]	1	1	3	4	11	18	Burnt	–	thermostabilizing power compared to 2-phenyl-indole, in words [1]: greatly superior to 2-phenyl-indole
C=CCCC1=C(C(=O)OC)CC(C(=O)OC)=C(CCC=C)N1 [Compound 17, 2,6-Di-(3-butenyl)-3,5-dicarbomethoxy-1,4-dihydropyridine]	1	1	2	8	9	Burnt	–	–	thermostabilizing power compared to 2-phenyl-indole, in words [1]: greatly superior to 2-phenyl-indole
COC(=O)C1=C(c2ccccc2)NC(c2ccccc2)=C(C(=O)OC)C1 [Compound 18, 2,6-Diphenyl-3,5-dicarbomethoxy-1,4-dihydropyridine]	1	1	2	2	2	3	6	Burnt	–
CC1=C(C(=O)OCCOCCCl)CC(C(=O)OCCOCCCl)=C(C)N1 [Compound 19, 2,6-Dimethyl-3,5-di-(2"-carbochloro-2'ethoxy-ethoxy)-1,4-dihydropyridine]	1	1	1	2	3	10	13	Burnt	–
CCCCCCCCCCCCCC1=C(C(=O)OC)CC(C(=O)OC)=C(CCCCCCCCCCCCC)N1 [Compound 20, 2,6-Ditridecyl-3,5-dicarbomethoxy-1,4-dihydropyridine]	1	1	1.5	2	2	2.5	4	7	–
CC1=C(C(=O)OCC=Cc2ccccc2)CC(C(=O)OCC=Cc2ccccc2)=C(C)N1 [Compound 22, 2,6-Dimethyl-3,5-dicarbocinnamyloxy-1,4-dihydropyridine]	1	1	2	4	11	Burnt	–	–	–
COC(=O)C1=C(C)NC(C)=C(C(=O)OC)C1c1ccccc1 [Compound 23, 2,6-Dimethyl-3,5-dicarbomethoxy-4-phenyl-1,4-dihydropyridine]	1	2	3	13	14	15	Burnt	–	–
COCCOC(=O)C1=C(C)NC(C)=C(C(=O)OCCOC)C1 [Compound 25]	1	1	1	1	1	4	11	17	–
CCOCCOC(=O)C1=C(C)NC(C)=C(C(=O)OCCOCC)C1 [Compound 26]	1	1	1	1	1.5	3	11	Burnt	–
